Experimental data published in PMC4303209, “A novel phosphatidylinositol 3-kinase (PI3K) inhibitor directs a potent FOXO-dependent, p53-independent cell cycle arrest phenotype characterized by the differential induction of a subset of FOXO-regulated genes” (Breast Cancer Research : BCR, 2014).

Test system: MCF-7 breast cancer cells
Assay: Microarray gene expression analysis (Agilent whole human genome 4 x 44K; compound vs DMSO, LIMMA log2 fold change)
Format: cell-based
Conditions: cell cycle genes

## Oc1cccc(-c2nc(N3CCOCC3)c3oc4ncccc4c3n2)c1 [PI-103]
Gene 994
  CDC25B log2FC: -0.0551
Gene 995
  CDC25C log2FC: 1.56
Gene 997
  CDC34 log2FC: 0.51
Gene 998
  CDC42 log2FC: 0.08
Gene 1017
  CDK2 log2FC: -0.44
Gene 1018
  CDK3 log2FC: -0.00896
Gene 1019
  CDK4 log2FC: 0.17
Gene 1020
  CDK5 log2FC: 0.18
Gene 1022
  CDK7 log2FC: 0.77
Gene 1026
  CDKN1A log2FC: -1.23
Gene 1027
  CDKN1B log2FC: 1.12
Gene 1028
  CDKN1C log2FC: 0.88
Gene 1029
  CDKN2A log2FC: 0.30
Gene 1032
  CDKN2D log2FC: 0.90
Gene 1033
  CDKN3 log2FC: 0.04
Gene 1058
  CENPA log2FC: 0.29
Gene 1062
  CENPE log2FC: 1.00
Gene 1063
  CENPF log2FC: 1.50
Gene 1069
  CETN2 log2FC: 0.12
Gene 1107
  CHD3 log2FC: -0.15
Gene 1111
  CHEK1 log2FC: 0.38
Gene 1163
  CKS1B log2FC: 0.12
Gene 1164
  CKS2 log2FC: -0.62
Gene 1213
  CLTC log2FC: 0.15
Gene 1263
  PLK3 log2FC: -1.59
Gene 1386
  ATF2 log2FC: 0.88
Gene 1389
  CREBL2 log2FC: 0.85
Gene 1432
  MAPK14 log2FC: -0.30
Gene 1452
  CSNK1A1 log2FC: -0.04
Gene 1453
  CSNK1D log2FC: -0.30
Gene 1454
  CSNK1E log2FC: -0.52
Gene 1457
  CSNK2A1 log2FC: -0.65
Gene 1487
  CTBP1 log2FC: -0.24
Gene 1490
  CTGF log2FC: -0.35
Gene 1540
  CYLD log2FC: 0.38
Gene 1594
  CYP27B1 log2FC: -0.17
Gene 1613
  DAPK3 log2FC: -0.075
Gene 1642
  DDB1 log2FC: 0.26
Gene 1649
  DDIT3 log2FC: 2.08
Gene 1654
  DDX3X log2FC: -1.13
Gene 1718
  DHCR24 log2FC: -0.73
Gene 1719
  DHFR log2FC: 0.49
Gene 1739
  DLG1 log2FC: 0.12
Gene 1761
  DMRT1 log2FC: 0.0553
Gene 1781
  DYNC1I2 log2FC: 0.63
Gene 1785
  DNM2 log2FC: 0.27
Gene 1814
  DRD3 log2FC: -0.0531
Gene 1843
  DUSP1 log2FC: -0.80
Gene 1845
  DUSP3 log2FC: 0.48
Gene 1859
  DYRK1A log2FC: 0.34
Gene 1869
  E2F1 log2FC: -0.12
Gene 1870
  E2F2 log2FC: -0.38
Gene 1871
  E2F3 log2FC: -0.42
Gene 1874
  E2F4 log2FC: -0.66
Gene 1875
  E2F5 log2FC: 0.15
Gene 1876
  E2F6 log2FC: -0.52
Gene 1877
  E4F1 log2FC: 0.31
Gene 1894
  ECT2 log2FC: 0.84
Gene 1908
  EDN3 log2FC: -0.022
Gene 1950
  EGF log2FC: -0.01
Gene 1956
  EGFR log2FC: 0.48
Gene 1978
  EIF4EBP1 log2FC: 0.0433
Gene 1982
  EIF4G2 log2FC: -0.10
Gene 2010
  EMD log2FC: -0.12
Gene 2029
  ENSA log2FC: -0.0565
Gene 2059
  EPS8 log2FC: 0.46
Gene 2068
  ERCC2 log2FC: -0.27
Gene 2071
  ERCC3 log2FC: -0.11
Gene 2072
  ERCC4 log2FC: 0.06
Gene 2077
  ERF log2FC: 0.40
Gene 2079
  ERH log2FC: -0.38
Gene 2081
  ERN1 log2FC: -0.11
Gene 2113
  ETS1 log2FC: -0.82
Gene 2146
  EZH2 log2FC: 0.46
Gene 2189
  FANCG log2FC: 0.0225
Gene 2237
  FEN1 log2FC: -1.06
Gene 2241
  FER log2FC: 0.26
Gene 2247
  FGF2 log2FC: 0.18
Gene 2253
  FGF8 log2FC: -0.13
Gene 2255
  FGF10 log2FC: -0.00185
Gene 2260
  FGFR1 log2FC: -0.37
Gene 2261
  FGFR3 log2FC: -0.16
Gene 2263
  FGFR2 log2FC: 1.81
Gene 2273
  FHL1 log2FC: -0.0644
Gene 2296
  FOXC1 log2FC: -0.77
Gene 2305
  FOXM1 log2FC: -0.022
Gene 2316
  FLNA log2FC: -0.0267
Gene 2342
  FNTB log2FC: -0.45
Gene 2619
  GAS1 log2FC: 0.76
Gene 2620
  GAS2 log2FC: 0.15
Gene 2621
  GAS6 log2FC: -0.10
Gene 2672
  GFI1 log2FC: 0.03
Gene 2770
  GNAI1 log2FC: 1.07
Gene 2771
  GNAI2 log2FC: -0.26
Gene 2773
  GNAI3 log2FC: 0.53
Gene 2810
  SFN log2FC: -1.15
Gene 2827
  GPR3 log2FC: -0.30
Gene 2873
  GPS1 log2FC: 0.025
Gene 2874
  GPS2 log2FC: 0.19
Gene 2932
  GSK3B log2FC: -0.45
Gene 2935
  GSPT1 log2FC: -0.35
Gene 2956
  MSH6 log2FC: -0.0751
Gene 2965
  GTF2H1 log2FC: 0.32
Gene 3014
  H2AFX log2FC: -0.94
Gene 3054
  HCFC1 log2FC: -0.62
Gene 3065
  HDAC1 log2FC: -0.55
Gene 3066
  HDAC2 log2FC: 0.06
Gene 3082
  HGF log2FC: -0.20
Gene 3087
  HHEX log2FC: -0.29
Gene 3169
  FOXA1 log2FC: 0.13
Gene 3209
  HOXA13 log2FC: 0.04
Gene 3265
  HRAS log2FC: -0.76
Gene 3275
  PRMT2 log2FC: 0.29
Gene 3280
  HES1 log2FC: -1.26
Gene 3297
  HSF1 log2FC: 0.25
Gene 3306
  HSPA2 log2FC: -1.30
Gene 3320
  HSP90AA1 log2FC: 0.72
Gene 3398
  ID2 log2FC: 1.14
Gene 3399
  ID3 log2FC: -0.08
Gene 3458
  IFNG log2FC: -0.04
Gene 3479
  IGF1 log2FC: 0.05
Gene 3480
  IGF1R log2FC: 0.08
Gene 3481
  IGF2 log2FC: 0.0241
Gene 3552
  IL1A log2FC: -0.07
Gene 3553
  IL1B log2FC: 0.035
Gene 3576
  IL8 log2FC: -1.30
Gene 3593
  IL12B log2FC: -0.0227
Gene 3609
  ILF3 log2FC: -0.47
Gene 3611
  ILK log2FC: -0.0473
Gene 3619
  INCENP log2FC: 0.13
Gene 3622
  ING2 log2FC: 0.26
Gene 3623
  INHA log2FC: -0.06
Gene 3642
  INSM1 log2FC: -0.06
Gene 3643
  INSR log2FC: 0.74
Gene 3664
  IRF6 log2FC: 0.56
Gene 3688
  ITGB1 log2FC: 0.58
Gene 3725
  JUN log2FC: -0.94
Gene 3726
  JUNB log2FC: -0.65
Gene 3832
  KIF11 log2FC: 0.83
Gene 3875
  KRT18 log2FC: -0.44
Gene 3925
  STMN1 log2FC: 0.33
Gene 3976
  LIF log2FC: -1.84
Gene 3978
  LIG1 log2FC: 0.0377
Gene 3980
  LIG3 log2FC: -0.50
Gene 3993
  LLGL2 log2FC: -0.0661
Gene 4041
  LRP5 log2FC: -0.40
Gene 4085
  MAD2L1 log2FC: -0.14
Gene 4088
  SMAD3 log2FC: 0.24
Gene 4172
  MCM3 log2FC: 0.0559
Gene 4174
  MCM5 log2FC: 0.04
Gene 4176
  MCM7 log2FC: 0.08
Gene 4193
  MDM2 log2FC: -0.11
Gene 4194
  MDM4 log2FC: -0.14
Gene 4218
  RAB8A log2FC: -0.76
Gene 4282
  MIF log2FC: 0.23
Gene 4288
  MKI67 log2FC: 0.06
